Experiments:
[1] = system: A431 cells; experiment: MTT cytotoxicity assay, A431 epidermoid carcinoma cells; type: cell-based; conditions: Homo sapiens, A-431; MTT test, 72 h; read-out: A431 IC50 (μM) ± SD
Experimental: F. Zunino (Division of Experimental Oncology B, Istituto Nazionale dei Tumori, Milan, Italy).
The growth inhibitory effect towards human cell lines was evaluated by means of MTT (tetrazolium salt reduction) assay. […] Triplicate cultures were established for each treatment.

[2] = system: A375 cells; experiment: MTT cytotoxicity assay, A375 melanoma cells; type: cell-based; conditions: Homo sapiens, A-375; MTT test, 72 h; read-out: A375 IC50 (μM) ± SD
Experimental: (§1) The cytotoxic profile of 19 and 27 was assessed on a wider panel of human tumor cell lines including also examples of breast (MCF-7), cervical (A431), colorectal (HCT-15), and ovarian (2008) cancers as well as melanoma (A375), besides lung (A549) and pancreatic (BxPC3) cancer cells. IC50 values, calculated from the dose-survival curves obtained after 72 h of drug treatment from the MTT test, are reported in Table 2. […] Both compounds were endowed with a cytotoxic potency higher than that of SU, eliciting IC50 values in the low micromolar range.
(§2) All compounds, except derivative 27, were dissolved in DMSO just before the experiment, and a calculated amount of drug solution was added to the cell growth medium to a final solvent concentration of 0.5%, which had no discernible effect on cell killing. Compound 27 was dissolved in a 0.9% NaCl solution just before the experiment.
(§3) Human lung (A549), breast (MCF-7), pancreas (BxPC3), and colon (LoVo) carcinoma cell lines along with melanoma (A375) were obtained from American Type Culture Collection (ATCC, Rockville, MD). Human non-tumor embryonic kidney HEK293 cells were obtained from European Collection of Cell Cultures (ECACC, Salisbury, UK). Human cervical carcinoma A431cells were kindly provided by Prof. F. Zunino (Division of Experimental Oncology B, Istituto Nazionale dei Tumori, Milan, Italy). Human ovarian cancer 2008 cells were kindly provided by Prof. G. Marverti (Dept. of Biomedical Science of Modena University, Italy). […]
(§4) The growth inhibitory effect towards human cell lines was evaluated by means of MTT (tetrazolium salt reduction) assay. […] After overnight incubation, the inhibition of cell growth induced by the tested complexes was detected by measuring the absorbance of each well at 570 nm using a Bio-Rad 680 microplate reader (Bio-Rad, Hercules, CA). Mean absorbance for each drug dose was expressed as a percentage of the control untreated well absorbance and plotted vs drug concentration.

[3] = biological target: T1, PDGFRβ (Homo sapiens, UniProt P09619); experiment: KinomeScan Kd determination, PDGFRβ; type: binding; conditions: for KdRTK/KdKIT, PDGFRβ: Kd PDGFRβ over Kd KIT; for Kd: KinomeScan
T1 construct: purchased DiscoverX (KinomeScan service)
T1 sequence (P09619 33-1106): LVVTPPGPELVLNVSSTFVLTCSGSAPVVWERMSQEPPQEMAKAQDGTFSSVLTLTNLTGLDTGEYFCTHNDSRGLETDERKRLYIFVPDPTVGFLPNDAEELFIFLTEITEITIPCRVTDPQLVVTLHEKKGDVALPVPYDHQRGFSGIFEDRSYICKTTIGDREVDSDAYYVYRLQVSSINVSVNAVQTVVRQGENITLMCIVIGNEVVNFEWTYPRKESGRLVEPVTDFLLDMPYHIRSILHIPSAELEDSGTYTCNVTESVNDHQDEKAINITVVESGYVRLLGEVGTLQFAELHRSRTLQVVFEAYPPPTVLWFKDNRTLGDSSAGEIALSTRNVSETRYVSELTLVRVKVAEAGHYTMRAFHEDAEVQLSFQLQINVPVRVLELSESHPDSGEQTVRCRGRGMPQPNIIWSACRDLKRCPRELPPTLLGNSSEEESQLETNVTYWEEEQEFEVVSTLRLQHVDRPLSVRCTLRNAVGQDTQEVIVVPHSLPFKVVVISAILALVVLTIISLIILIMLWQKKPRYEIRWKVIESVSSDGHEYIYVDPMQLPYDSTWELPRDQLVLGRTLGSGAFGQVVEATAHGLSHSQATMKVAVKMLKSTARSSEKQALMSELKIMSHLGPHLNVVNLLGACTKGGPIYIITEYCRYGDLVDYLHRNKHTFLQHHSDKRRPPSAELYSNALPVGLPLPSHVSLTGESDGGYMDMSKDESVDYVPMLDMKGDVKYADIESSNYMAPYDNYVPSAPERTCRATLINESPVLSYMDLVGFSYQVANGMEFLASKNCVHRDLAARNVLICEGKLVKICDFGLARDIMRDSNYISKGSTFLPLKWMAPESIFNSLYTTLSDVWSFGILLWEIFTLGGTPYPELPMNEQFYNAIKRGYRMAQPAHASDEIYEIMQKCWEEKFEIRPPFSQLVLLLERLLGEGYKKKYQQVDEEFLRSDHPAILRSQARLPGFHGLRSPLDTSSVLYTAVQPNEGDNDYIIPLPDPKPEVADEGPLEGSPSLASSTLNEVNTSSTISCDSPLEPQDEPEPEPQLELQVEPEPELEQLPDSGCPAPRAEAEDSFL
Experimental: The compounds were evaluated using the KinomeScan™ platform (http://www.discoverx.com/services/drug-discovery-development-services/kinase-profiling/kinomescan), that measures the ability of the test compound to disrupt the complex between a high affinity ATP-mimic probe immobilized on a solid support and the kinase of interest. The KinomeScan is a very helpful technology for the fast and reliable screening of a number of compounds against a wide and customizable panel of kinases. Besides, it is not based on the use of hazardous radioactive ^32P-ATP and has a very low rate of false positive (<1%)[44]. The screening platform outputs a “Percent of Control” (POC) value, statistically correlated to the dissociation constant (Kd) value (http://www.discoverx.com/tools-resources/leadhunter-study-reports-data-analysis), for each pair of kinase/ligand. The POC is calculated as reported in equation (1): […]
The ability of compounds 19 and 27 to bind the class III RTK members was measured (Table 2; see also Figs S3 and S4 for dose/response curves).
Figure S3. Dose/response curve for compound 19 against tested kinases for Kd determination. The amount of kinase measured by qPCR (Signal; y-axis) is plotted against the corresponding compound concentration in nM in log10 scale (x-axis). Data points marked with an "x" were not used for Kd determination.
(1 picture or pasted object on this page, not shown here)
Figure S4. Dose/response curve for compound 27 against tested kinases for Kd

[4] = system: LoVo cells; experiment: MTT cytotoxicity assay, LoVo colon carcinoma cells; type: cell-based; conditions: Homo sapiens, MTT test, 72 h, read-out: LoVo IC50 (μM) ± SD
Experimental: as §1, §2, §3, §4

[5] = system: A549 cells; experiment: MTT cytotoxicity assay, A549 lung cancer cells; type: cell-based, human; conditions: for IC50: Homo sapiens, A549, 72 h, MTT test, 72 h of drug treatment, read-out: A549 IC50 (μM) ± SD
Experimental: (§5) Compounds active against at least one kinase among EGFR and class III RTKs were evaluated for their cytotoxic properties against two different human cancer cell lines, namely non small cells A549 lung cancer cells (sensitive to EGFR inhibitors)[46] and pancreatic BxPC3 adenocarcinoma (sensitive to both PDGFRβ and EGFR inhibitors)[47][48] cells. […] The results, expressed as IC50 values (μM) calculated from the dose-survival curves obtained after 72 h of drug treatment from the MTT test, are reported in Table 1.
as §2
(§6) Human lung (A549), breast (MCF-7), pancreas (BxPC3), and colon (LoVo) carcinoma cell lines along with melanoma (A375) were obtained from American Type Culture Collection (ATCC, Rockville, MD). Human non-tumor embryonic kidney HEK293 cells were obtained from European Collection of Cell Cultures (ECACC, Salisbury, UK). Human cervical carcinoma A431cells were kindly provided by Prof. F. Zunino (Division of Experimental Oncology B, Istituto Nazionale dei Tumori, Milan, Italy). Human ovarian cancer 2008 cells were kindly provided by Prof. G. Marverti (Dept. of Biomedical Science of Modena University, Italy). Cell lines were maintained in the logarithmic phase at 37 °C in a 5% carbon dioxide atmosphere using the following culture media containing 10% fetal calf serum (Euroclone, Milan, Italy), antibiotics (50 units ∙ mL^−1 penicillin and 50 μg ∙ mL^−1 streptomycin) and 2 mM l-glutamine: i) RPMI-1640 medium (Euroclone) for MCF-7, A431, BxPC3 and 2008 cells; ii) F-12 HAM’S (Sigma Chemical Co.) for A549 and LoVo cells; iii) D-MEM medium (Euroclone) for HEK293 cells.
(§7) The growth inhibitory effect towards human cell lines was evaluated by means of MTT (tetrazolium salt reduction) assay. Briefly, 3–8 ∙ 10^3 cells/well, dependent upon the growth characteristics of the cell line, were seeded in 96-well microplates in growth medium (100 μL) and then incubated at 37 °C in a 5% carbon dioxide atmosphere. After 24 h, the medium was removed and replaced with a fresh one containing the test compound at the appropriate concentration. Triplicate cultures were established for each treatment. After 72 h, each well was treated with 10 μL of a 5 mg ∙ mL-1 MTT (3-(4,5-dimethylthiazol-2-yl)-2,5-diphenyltetrazolium bromide) saline solution, and after 5 h additional incubation, 100 μL of a sodium dodecylsulfate (SDS) solution in HCl 0.01 M were added. After overnight incubation, the inhibition of cell growth induced by the tested complexes was detected by measuring the absorbance of each well at 570 nm using a Bio-Rad 680 microplate reader (Bio-Rad, Hercules, CA). Mean absorbance for each drug dose was expressed as a percentage of the control untreated well absorbance and plotted vs drug concentration.

[6] = system: BxPC3 cells; experiment: MTT cytotoxicity assay, BxPC3 pancreatic adenocarcinoma cells; type: cell-based, human; conditions: for IC50: Homo sapiens, BXPC-3, MTT test, 72 h of drug treatment, read-out: BxPC3 IC50 (μM) ± SD
Experimental: as §5, §2, §6, §7

[7] = system: MCF-7 cells; experiment: MTT cytotoxicity assay, MCF-7 breast cancer cells; type: cell-based; conditions: Homo sapiens, MCF7; MTT test, 72 h; read-out: MCF-7 IC50 (μM) ± SD
Experimental: as §1, §2, §3, §4

Compound | IC50 [1] | IC50 [2] | KdRTK/KdKIT, PDGFRβ [3] | Kd [3] | IC50 [4] | IC50 [5] | Potency relative to SU (A549) ([5]; ratio between IC50 of sunitinib and IC50 of tested compound, A549) | IC50 [6] | IC50 [7] | Potency improvement Kd19/Kd27, PDGFRβ ([3]; 27 versus 19) | Potency relative to SU (BxPC3) ([6]; ratio between IC50 of sunitinib and IC50 of tested compound, BxPC3)
O=C(Nc1ccccc1)Nc1ccc(Nc2cc(-c3ccccc3)ncn2)cc1 [Compound 19] | 2.85 ± 1.03 µM | 6.41 ± 2.02 µM | 4 | 80 nM | 7.45 ± 1.53 µM | 3.16 ± 1.12 µM | 1.97 | 0.77 ± 0.21 µM | 1.23 ± 0.89 µM | – | –
O=C(CN1CCOCC1)Nc1cccc(-c2cc(Nc3ccc(NC(=O)Nc4ccccc4)cc3)ncn2)c1 [Compound 27] | 1.96 ± 0.92 µM | 5.56 ± 1.39 µM | 7 | 70 nM | 7.76 ± 1.28 µM | 3.11 ± 1.09 µM | – | 0.81 ± 0.32 µM | 1.55 ± 0.75 µM | 1.1 | 6
